# Reference: patent US7578968B1, “Microbiological control in oil or gas field operations” (Albemarle Corporation, priority 2002, dated 2009)
# Legend:
# Format in all cases: physicochemical
# [1] = Comparative study of oxidation reduction potentials (ORP) and halogen residuals in cooling tower water
# Procedure: The oxidants studied consisted of WELLGUARD 909 biocide, STABREX biocide (stabilized NaBr+NaOCl), bleach (NaOCl), and activated sodium bromide (NaOCl and NaBr).
# Stock solutions of the biocides were prepared at 1000 ppm halogen residual concentration (as Cl2) in brown glass bottles using deionized water for dilution. Solution activities were confirmed using the DPD method and a Hach Co. (Loveland, Colo.) DR/2000 spectrophotometer.
# Aliquots of the stock solutions above were added to 1000 mL of cooling tower water that had been pulled from a cooling tower. A 1000 mL beaker was charged with 1000 mL of cooling tower water and stirred while measuring ORP with a Brinkmann Metrohm 716 DMS Titrino automatic titrator. It took about 45 minutes for the sample to equilibrate—the ORP reading would gradually decline to a reading of about 300 mV. The sample was deemed to have equilibrated when the change in the ORP reading was less than or equal to 1 unit/minute. At this point, 0.5 g of stock solution (nominal halogen residual=0.5 ppm) was added and the mixture allowed to equilibrate once again. A sample was pulled to determine free and total halogen residuals and then 0.5 g additional stock solution was added and the process repeated. The following aliquots were added during the experiment: 0.5 g, 1.0 g, 2.0 g, 3.0 g, 4.0 g, 6.0 g, 8.0 g, 10.0 g.
# [2] = Reversion of AMP to orthophosphate by oxidizing biocides; settings: for Phosphate (orthophosphate from AMP): oxidant 10 ppm as Cl2, pH 9.1, 23° C.
# Procedure: (§1) The oxidants studied consisted of WELLGUARD 909 biocide, bleach (NaOCl), and activated sodium bromide (NaOCl and NaBr). The WELLGUARD 909 biocide and bleach were added directly. Activated sodium bromide was prepared in situ by introducing 20 ppm bromide ion to the stock solution followed by addition of bleach. The phosphonates used in this work consisted of AMP (aminomethylene phosphonic acid), HEDP (hydroxyethylidene diphosphonic acid), and PBTC (phosphonobutanetricarboxylic acid). These materials were commercial samples (Mayoquest 1320, 1500, and 2100, respectively) obtained from Callaway Chemical Co. (Smyrna, Ga.).
# (§2) Solutions consisting of 5 ppm scale inhibitor (as active phosphonate) in the presence of 10 ppm oxidant (as Cl2) were prepared as follows. To 900 mL deionized water were added appropriate stock solutions containing phosphonate, alkalinity (NaHCO3), and calcium hardness (CaCl2). The pH was adjusted to 9.1 with 5% aq. NaOH and diluted up to 1 L in a dark amber bottle. A dose of oxidant was added to achieve a residual of 10 ppm. The solutions were then periodically monitored for phosphonate reversion by determining the reversion to orthophosphate (Hach method 490). The oxidant residual was also periodically monitored using the DPD method (Hach method 80). All of this work was performed at room temperature (23° C.). The initial active phosphonate content was confirmed by conversion to orthophosphate via UV/persulfate oxidation followed by a conventional phosphate analysis (Hach method 501). A conversion factor was applied to the phosphate measurement to determine the initial amount of active phosphonate present as follows: AMP, 1.05; HEDP, 1.085; PBTC, 2.85.
# [3] = Reversion of HEDP to orthophosphate by oxidizing biocides; settings: for Phosphate (orthophosphate from HEDP): oxidant 10 ppm as Cl2, pH 9.1, 23° C.
# Procedure: as §1, §2
# [4] = Reversion of PBTC to orthophosphate by oxidizing biocides; settings: for Phosphate (orthophosphate from PBTC): oxidant 10 ppm as Cl2, pH 9.1, 23° C.
# Procedure: as §1, §2
# [5] = nominal free/total ppm (as Cl2): STABREX 0.49/0.51, WELLGUARD 909 0.42/0.52, Bleach 0.50, Activated NaBr 0.48/0.52
# [6] = nominal free/total ppm: STABREX 0.98/1.04, WELLGUARD 909 0.85/1.04, Bleach 1.00, Activated NaBr 0.97/1.05
# [7] = nominal free/total ppm: STABREX 2.00/2.11, WELLGUARD 909 1.72/2.12, Bleach 2.04, Activated NaBr 1.97/2.14
# [8] = nominal free/total ppm: STABREX 3.04/3.20, WELLGUARD 909 2.62/3.22, Bleach 3.09, Activated NaBr 2.99/3.25
# [9] = nominal free/total ppm: STABREX 4.09/4.32, WELLGUARD 909 3.53/4.20, Bleach 4.17, Activated NaBr 4.03/4.39
# [10] = nominal free/total ppm: STABREX 6.26/6.60, WELLGUARD 909 5.40/6.63, Bleach 6.37, Activated NaBr 6.17/6.71
# [11] = nominal free/total ppm: STABREX 8.47/8.94, WELLGUARD 909 7.31/8.98, Bleach 8.63, Activated NaBr 8.35/9.08
# [12] = nominal free/total ppm: STABREX 10.74/11.33, WELLGUARD 909 9.26/11.38, Bleach 10.93, Activated NaBr 10.58/11.51
compound,measurement,setting,value
"[Na+].[O-]Cl [Bleach, NaOCl]",loss in biocide residual,[1]; conditions of Table 3,significant loss of residual during initial stages of biocide addition
same,"Actual Residual, ppm Free",[1]; [5],0.13 ppm
same,"Actual Residual, ppm Total",[1]; [5],0.34 ppm
same,"ORP Reading, mV",[1]; [5],500 mV
same,"Actual Residual, ppm Free",[1]; [6],0.29 ppm
same,"Actual Residual, ppm Total",[1]; [6],0.48 ppm
same,"ORP Reading, mV",[1]; [6],620 mV
same,"Actual Residual, ppm Free",[1]; [7],1.12 ppm
same,"Actual Residual, ppm Total",[1]; [7],1.29 ppm
same,"ORP Reading, mV",[1]; [7],659 mV
same,"Actual Residual, ppm Free",[1]; [8],1.88 ppm
same,"Actual Residual, ppm Total",[1]; [8],2.08 ppm
same,"ORP Reading, mV",[1]; [8],672 mV
same,"Actual Residual, ppm Free",[1]; [9],2.98 ppm
same,"Actual Residual, ppm Total",[1]; [9],3.43 ppm
same,"ORP Reading, mV",[1]; [9],678 mV
same,"Actual Residual, ppm Free",[1]; [10],5.24 ppm
same,"Actual Residual, ppm Total",[1]; [10],5.68 ppm
same,"ORP Reading, mV",[1]; [10],683 mV
same,"Actual Residual, ppm Free",[1]; [11],7.68 ppm
same,"Actual Residual, ppm Total",[1]; [11],8.16 ppm
same,"ORP Reading, mV",[1]; [11],685 mV
same,"Actual Residual, ppm Free",[1]; [12],10.08 ppm
same,"Actual Residual, ppm Total",[1]; [12],10.78 ppm
same,"ORP Reading, mV",[1]; [12],689 mV
same,Cl2 (oxidant residual),"[2]; AMP 5 ppm, initial oxidant 10 ppm as Cl2, pH 9.1, 23° C., 460 minutes",9.4 ppm
same,Phosphate (orthophosphate from AMP),"[2]; AMP 5 ppm, 20 minutes",0.35 ppm
same,Phosphate (orthophosphate from AMP),"[2]; AMP 5 ppm, 40 minutes",0.7 ppm
same,Phosphate (orthophosphate from AMP),"[2]; AMP 5 ppm, 70 minutes",0.53 ppm
same,Phosphate (orthophosphate from AMP),"[2]; AMP 5 ppm, 100 minutes",0.75 ppm
same,Phosphate (orthophosphate from AMP),"[2]; AMP 5 ppm, 130 minutes",0.8 ppm
same,Phosphate (orthophosphate from AMP),"[2]; AMP 5 ppm, 190 minutes",0.77 ppm
same,Phosphate (orthophosphate from AMP),"[2]; AMP 5 ppm, 220 minutes",0.59 ppm
same,Phosphate (orthophosphate from AMP),"[2]; AMP 5 ppm, 250 minutes",0.64 ppm
same,Phosphate (orthophosphate from AMP),"[2]; AMP 5 ppm, 280 minutes",0.83 ppm
same,Phosphate (orthophosphate from AMP),"[2]; AMP 5 ppm, 310 minutes",0.82 ppm
same,Phosphate (orthophosphate from AMP),"[2]; AMP 5 ppm, 340 minutes",0.8 ppm
same,Phosphate (orthophosphate from AMP),"[2]; AMP 5 ppm, 370 minutes",0.81 ppm
same,Phosphate (orthophosphate from AMP),"[2]; AMP 5 ppm, 400 minutes",0.79 ppm
same,Phosphate (orthophosphate from AMP),"[2]; AMP 5 ppm, 520 minutes",0.97 ppm
same,Phosphate (orthophosphate from AMP),"[2]; AMP 5 ppm, 1360 minutes",0.91 ppm
same,averaged amounts of phosphonate reversion,"[2]; AMP, Table 4 averages",18.7%
same,"Phosphate, average","[2]; AMP, average 100-1360 minutes, maximum liberable phosphate: WELLGUARD 909 4.58, Activated NaBr 4.18, Bleach 4.22 ppm",0.79 ppm
same,Cl2 (oxidant residual),"[3]; HEDP 5 ppm, initial oxidant 10 ppm as Cl2, pH 9.1, 23° C., 400 minutes",10.6 ppm
same,Phosphate (orthophosphate from HEDP),"[3]; HEDP 5 ppm, 20 minutes",0 ppm
same,Phosphate (orthophosphate from HEDP),"[3]; HEDP 5 ppm, 40 minutes",0 ppm
same,Phosphate (orthophosphate from HEDP),"[3]; HEDP 5 ppm, 70 minutes",0.2 ppm
same,Phosphate (orthophosphate from HEDP),"[3]; HEDP 5 ppm, 100 minutes",0.25 ppm
same,Phosphate (orthophosphate from HEDP),"[3]; HEDP 5 ppm, 130 minutes",0.31 ppm
same,Phosphate (orthophosphate from HEDP),"[3]; HEDP 5 ppm, 190 minutes",0.61 ppm
same,Phosphate (orthophosphate from HEDP),"[3]; HEDP 5 ppm, 220 minutes",0.65 ppm
same,Phosphate (orthophosphate from HEDP),"[3]; HEDP 5 ppm, 250 minutes",0.39 ppm
same,Phosphate (orthophosphate from HEDP),"[3]; HEDP 5 ppm, 280 minutes",0.41 ppm
same,Phosphate (orthophosphate from HEDP),"[3]; HEDP 5 ppm, 310 minutes",0.58 ppm
same,Phosphate (orthophosphate from HEDP),"[3]; HEDP 5 ppm, 340 minutes",0.65 ppm
same,Phosphate (orthophosphate from HEDP),"[3]; HEDP 5 ppm, 370 minutes",0.84 ppm
same,Phosphate (orthophosphate from HEDP),"[3]; HEDP 5 ppm, 400 minutes",0.65 ppm
same,Phosphate (orthophosphate from HEDP),"[3]; HEDP 5 ppm, 460 minutes",0.95 ppm
same,Phosphate (orthophosphate from HEDP),"[3]; HEDP 5 ppm, 520 minutes, maximum liberable phosphate: WELLGUARD 909 4.20, Activated NaBr 4.40, Bleach 4.80 ppm",0.94 ppm
same,relative amounts of reversion,"[3]; HEDP, after 520 minutes",19.6%
same,residual oxidant (as Cl2),"[4]; PBTC 5 ppm, initial oxidant 10 ppm as Cl2, pH 9.1, 23° C., 390 minutes (second 390 line)",9.5 ppm
same,Phosphate (orthophosphate from PBTC),"[4]; PBTC 5 ppm, 30 minutes",0 ppm
same,Phosphate (orthophosphate from PBTC),"[4]; PBTC 5 ppm, 60 minutes",0 ppm
same,Phosphate (orthophosphate from PBTC),"[4]; PBTC 5 ppm, 90 minutes",0 ppm
same,Phosphate (orthophosphate from PBTC),"[4]; PBTC 5 ppm, 120 minutes",0 ppm
same,Phosphate (orthophosphate from PBTC),"[4]; PBTC 5 ppm, 150 minutes",0 ppm
same,Phosphate (orthophosphate from PBTC),"[4]; PBTC 5 ppm, 180 minutes",0 ppm
same,Phosphate (orthophosphate from PBTC),"[4]; PBTC 5 ppm, 210 minutes",0.12 ppm
same,Phosphate (orthophosphate from PBTC),"[4]; PBTC 5 ppm, 270 minutes",0.16 ppm
same,Phosphate (orthophosphate from PBTC),"[4]; PBTC 5 ppm, 330 minutes",0.05 ppm
same,Phosphate (orthophosphate from PBTC),"[4]; PBTC 5 ppm, 360 minutes",0.02 ppm
same,Phosphate (orthophosphate from PBTC),"[4]; PBTC 5 ppm, 390 minutes (first 390 line)",0.02 ppm
same,Phosphate (orthophosphate from PBTC),"[4]; PBTC 5 ppm, 1360 minutes",0.08 ppm
same,average amounts of phosphonate reversion,"[4]; PBTC, after 3½ hours contact and beyond",5.2%
same,"Phosphate, average","[4]; PBTC, average 210-1360 minutes, maximum liberable phosphate: WELLGUARD 909 1.72, Activated NaBr 1.82, Bleach 1.44 ppm",0.075 ppm
